The supplement of paper PMC10627819

Columns and labels:
S. aureus DSM 20231 = assay: fitness (endpoint OD595 vs no drug) (fraction); higher = more growth
Summary of the method: (§1)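 Fitness expresses the optical density reached at the stationary-phase transition as a fraction of the robust mean of no-drug control wells. It is capped at 1. Measurements were OD595 every 30 min for 14 h at 37 °C after inoculation of 384-well plates at OD595 0.01 (30 µl, or 55 µl for S. pneumoniae), minus the first reading.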

S. pneumoniae D39V = assay: as above
Summary of the method: as §1
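Further: OD595 on entry to stationary phase over no-drug wells; at most 1.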

CC(=O)Oc1ccccc1C(=O)O [Acetylsalicylic acid] + COc1cccc2c1C(=O)c1c(O)c3c(c(O)c1C2=O)C[C@@](O)(C(=O)CO)C[C@@H]3O[C@H]1C[C@H](N)[C@H](O)[C@H](C)O1 [Doxorubicin]
fitness
Settings	first compound 250 µg/mL	first compound 500 µg/mL	first compound 1000 µg/mL
S. aureus DSM 20231, partner 0.625 µg/mL	0.835	0.759	0.607
S. aureus DSM 20231, partner 1.25 µg/mL	0.798	0.725	–
S. aureus DSM 20231, partner 2.5 µg/mL	0.783	0.71	0.586
S. pneumoniae D39V, partner 0.25 µg/mL	0.94	0.893	0.724
S. pneumoniae D39V, partner 0.5 µg/mL	0.945	0.904	0.751
S. pneumoniae D39V, partner 1 µg/mL	0.889	0.882	0.763

CC(=O)Oc1ccccc1C(=O)O [Acetylsalicylic acid] + CC1=C\[C@@H](O)CC(=O)Cc2nc(co2)C(=O)N2CCC=C2C(=O)O[C@H](C(C)C)[C@H](C)/C=C/C(=O)NC\C=C\1 [Virginiamycin M1]
fitness
Settings	first compound 250 µg/mL	first compound 500 µg/mL	first compound 1000 µg/mL
S. aureus DSM 20231, partner 0.0625 µg/mL	0.86	0.764	0.564
S. aureus DSM 20231, partner 0.125 µg/mL	0.922	–	–
S. aureus DSM 20231, partner 0.25 µg/mL	0.877	0.715	0.503
S. pneumoniae D39V, partner 0.5 µg/mL	0.967	0.964	0.872
S. pneumoniae D39V, partner 1 µg/mL	0.914	0.961	–
S. pneumoniae D39V, partner 2 µg/mL	0.933	0.903	–

fitness, one replicate
Settings	first compound 250 µg/mL	first compound 500 µg/mL	first compound 1000 µg/mL
S. aureus DSM 20231, partner 0.5 µg/mL	0.776	0.789	0.371
S. aureus DSM 20231, partner 1 µg/mL	0.818	0.781	0.389
S. pneumoniae D39V, partner 0.15 µg/mL	0.954	0.988	0.949
S. pneumoniae D39V, partner 0.3 µg/mL	0.951	0.938	0.918

CN(C)[C@@H]1C(O)=C(C(N)=O)C(=O)[C@@]2(O)C(O)=C3C(=O)c4c(O)ccc(Cl)c4[C@@](C)(O)[C@H]3C[C@@H]12 [Chlortetracycline] + Cn1nnc(-c2ccc(-c3ccc(N4C[C@H](CO)OC4=O)cc3F)cn2)n1 [Tedizolid]
S. aureus DSM 20231, first compound 0.006 µg/mL, one replicate
Settings	fitness
partner 0.0625 µg/mL	0.696
partner 0.125 µg/mL	0.659
partner 0.25 µg/mL	0.361

fitness
Settings	first compound 0.012 µg/mL	first compound 0.024 µg/mL	first compound 0.048 µg/mL	first compound 0.375 µg/mL	first compound 0.75 µg/mL	first compound 1.5 µg/mL
S. aureus DSM 20231, partner 0.0625 µg/mL	0.496	0.236	0.0517	–	–	–
S. aureus DSM 20231, partner 0.125 µg/mL	0.532	0.172	0.0562	–	–	–
S. aureus DSM 20231, partner 0.25 µg/mL	0.25	0.161	0.102	–	–	–
S. pneumoniae D39V, partner 0.03125 µg/mL	0.966	0.949	0.944	–	–	–
S. pneumoniae D39V, partner 0.0625 µg/mL	0.95	0.962	0.878	–	–	–
S. pneumoniae D39V, partner 0.125 µg/mL	0.795	0.789	0.845	0.0202	0.0366	0.0518
S. pneumoniae D39V, partner 0.25 µg/mL	–	–	–	0.0375	0.043	0.0385
S. pneumoniae D39V, partner 0.5 µg/mL	–	–	–	0.0294	0.0348	0.0435

CC(=O)Oc1ccccc1C(=O)O [Acetylsalicylic acid] + CN[C@@H]1[C@H](O)[C@H](NC)[C@H]2O[C@@]3(O)C(=O)C[C@@H](C)O[C@H]3O[C@@H]2[C@H]1O [Spectinomycin]
fitness
Settings	partner 4 µg/mL	partner 8 µg/mL	partner 16 µg/mL
S. aureus DSM 20231, first compound 250 µg/mL	0.871	0.866	–
S. pneumoniae D39V, first compound 250 µg/mL	0.934	0.911	0.817
S. pneumoniae D39V, first compound 500 µg/mL	0.862	0.801	0.691
S. pneumoniae D39V, first compound 1000 µg/mL	0.64	0.601	0.536

fitness, S. aureus DSM 20231, one replicate
Settings	first compound 250 µg/mL	first compound 500 µg/mL	first compound 1000 µg/mL
partner 32 µg/mL	0.541	0.631	0.101
partner 64 µg/mL	0.253	0.32	0.042

CC(=O)Oc1ccccc1C(=O)O [Acetylsalicylic acid] + O=C(O[C@@H]1Cc2c(O)cc(O)cc2O[C@@H]1c1cc(O)c(O)c(O)c1)c1cc(O)c(O)c(O)c1 [EGCG]
fitness
Settings	partner 12.5 µg/mL	partner 25 µg/mL	partner 50 µg/mL
S. aureus DSM 20231, first compound 250 µg/mL	0.764	0.774	0.766
S. aureus DSM 20231, first compound 500 µg/mL	0.735	0.767	0.72
S. aureus DSM 20231, first compound 1000 µg/mL	0.616	0.621	0.598
S. pneumoniae D39V, first compound 250 µg/mL	0.955	0.935	0.914
S. pneumoniae D39V, first compound 500 µg/mL	0.927	0.929	0.851

CC(=O)Oc1ccccc1C(=O)O [Acetylsalicylic acid] + CCC[C@@H]1C[C@@H](C(=O)N[C@@H]([C@H]2O[C@H](SC)[C@H](O)[C@@H](O)[C@H]2O)[C@H](C)Cl)N(C)C1 [Clindamycin]
fitness
Settings	first compound 250 µg/mL	first compound 500 µg/mL	first compound 1000 µg/mL
S. aureus DSM 20231, partner 0.0312 µg/mL	–	–	0.28
S. aureus DSM 20231, partner 0.0625 µg/mL	0.143	0.169	0.114
S. aureus DSM 20231, partner 0.125 µg/mL	0.0488	0.0833	0.0683
S. pneumoniae D39V, partner 0.0125 µg/mL	0.759	0.697	0.508
S. pneumoniae D39V, partner 0.015 µg/mL	0.857	0.771	0.528
S. pneumoniae D39V, partner 0.025 µg/mL	0.468	0.435	0.37
S. pneumoniae D39V, partner 0.03 µg/mL	0.677	0.574	0.37
S. pneumoniae D39V, partner 0.05 µg/mL	0.164	0.166	0.129
S. pneumoniae D39V, partner 0.06 µg/mL	0.331	0.246	0.104

CC(=O)Oc1ccccc1C(=O)O [Acetylsalicylic acid] + CN(N=O)C(=O)N[C@@H](C=O)[C@@H](O)[C@H](O)[C@H](O)CO [Streptozotocin]
fitness
Settings	first compound 250 µg/mL	first compound 500 µg/mL	first compound 1000 µg/mL
S. aureus DSM 20231, partner 0.15 µg/mL	0.778	0.635	–
S. aureus DSM 20231, partner 0.3 µg/mL	0.771	0.584	0.484
S. aureus DSM 20231, partner 0.6 µg/mL	0.64	0.578	0.414
S. pneumoniae D39V, partner 1.2 µg/mL	0.933	0.91	–
S. pneumoniae D39V, partner 2.4 µg/mL	0.934	0.9	–
S. pneumoniae D39V, partner 4.8 µg/mL	0.933	0.824	–

CC(=O)Oc1ccccc1C(=O)O [Acetylsalicylic acid] + CN1C2=CC=CC=C2N=C3C1=CC=CC3=O [Pyocyanin]
fitness
Settings	first compound 250 µg/mL	first compound 500 µg/mL	first compound 1000 µg/mL
S. aureus DSM 20231, partner 1.25 µg/mL	0.826	0.679	0.525
S. aureus DSM 20231, partner 2.5 µg/mL	0.751	0.607	0.437
S. aureus DSM 20231, partner 5 µg/mL	0.611	0.551	0.268
S. pneumoniae D39V, partner 0.325 µg/mL	≥ 1	0.995	0.917
S. pneumoniae D39V, partner 0.65 µg/mL	1	0.98	0.681
S. pneumoniae D39V, partner 1.3 µg/mL	0.863	0.722	0.467
